Measured values reported in patent US5654411A, “Process for preparing 4-deoxyerythromycin derivatives” (Abbott Laboratories, priority 1995, dated 1997).

System: smooth muscle strips isolated from rabbit small intestine
Assay: Induction of in vitro rabbit duodenal smooth muscle contraction
Settings: for EC50: Oryctolagus cuniculus, rabbit duodenum longitudinal muscle, 37° C., pH 7.5, read-out: pED50 (negative logarithm of the concentration producing half of the maximal contraction) (converted); for Relative Potency: relative to erythromycin A = 1.0
Method: The compounds of the present invention were tested in vitro for their ability to induce contraction of smooth muscle strips isolated from rabbit small intestine using the following procedure:
Rabbits were sacrificed and 15 cm of duodenum was rapidly removed and placed in ice-cold modified Ringers solution (120 mM sodium chloride, 25 mM sodium bicarbonate, 4.7 mM potassium chloride, 1.25 mM calcium chloride, 1.20 mM magnesium sulfate and 5.6 mM glucose). The longitudinal muscle layer was separated from the circular muscle by blunt dissection and cut into strips of 10×20 mm. Double-folded strips were vertically suspended between two hooks in 10 mL tissue baths with a mechanical preload of 1 g. The upper hook was connected to an […] force transducer, and its displacement was recorded on a Grass polygraph. The tissue baths contained modified Ringers solution at 37° C. and were continuously gassed with 95% oxygen/5% carbon dioxide in order to maintain the pH at 7.5.
After a stabilization period of at least 60 minutes, a contractility dose-response series was performed by adding increasing final concentrations of methacholine (10^-7 M, 10^-6 M and 10^-5 M) in volumes of 100 μL. The bath solutions were replaced at least three times between doses.
After the methacholine dose-response series was completed, a test compound dose response curve was initiated by the same procedure used for the methacholine dose-response series, with at least five concentrations of test compound within the range of 10^-10 M to 10^-4 M. The tissues were washed repeatedly between doses, and the studies were completed by recording the contractile response to 10^-5 M methacholine to ascertain integrity of the muscle preparation. Contractile responses were expressed as percent of maximal contraction. The concentration of test compound which produces half of the maximal contraction (ED50 value) and the negative logarithm of the ED50 value (PED50) were estimated from the dose-response curves.

Row | Structure (SMILES) | EC50 [nM] | Relative Potency | Endpoint (pED50) could not be obtained, potency in words (footnote a of Table 2)
1 | CC[C@H]1OC(=O)[C@H](C)[C@@H](O[C@H]2C[C@@](C)(OC)C[C@H](C)O2)[C@H](C)[C@@H](O[C@@H]2O[C@H](C)C[C@H](NC)[C@H]2O)[C@@]2(C)CC(C)=C(O2)[C@H](C)[C@@H](O)[C@H]1C [Example 6, 8,9-anhydro-4"-deoxy-3'-N-desmethylerythromycin B-6,9-hemiketal] | – | > 8000 | extremely high potency
2 | CC[C@H]1OC(=O)[C@H](C)[C@@H](O[C@H]2C[C@@](C)(OC)C[C@H](C)O2)[C@H](C)[C@@H](O[C@@H]2O[C@H](C)C[C@H](N(C)C)[C@H]2O)[C@@]2(C)CC(C)=C(O2)[C@H](C)[C@@H](O)[C@H]1C [Example 2, 8,9-anhydro-4"-deoxyerythromycin B-6,9-hemiketal] | 0.0055 | 257,039 | –
3 | C#CC[N+](C)(C)[C@H]1C[C@@H](C)O[C@@H](O[C@@H]2[C@@H](C)[C@H](O[C@H]3C[C@@](C)(OC)C[C@H](C)O3)[C@@H](C)C(=O)O[C@H](CC)[C@@](C)(O)[C@H](O)[C@@H](C)C3=C(C)C[C@@]2(C)O3)[C@@H]1O [Example 5, 8,9-anhydro-4"-deoxy-3'-N-propargylerythromycin A-6,9-hemiketal bromide] | 22.9 | 62 | –
4 | C#CC[N+](C)(C)[C@H]1C[C@@H](C)O[C@@H](O[C@@H]2[C@@H](C)[C@H](O[C@H]3C[C@@](C)(OC)C[C@H](C)O3)[C@@H](C)C(=O)O[C@H](CC)[C@H](C)[C@H](O)[C@@H](C)C3=C(C)C[C@@]2(C)O3)[C@@H]1O [Example 8, 8,9-anhydro-4"-deoxy-3'-N-propargylerythromycin B-6,9-hemiketal bromide] | 50.1 | 28 | –
5 | CC[C@H]1OC(=O)[C@H](C)[C@@H](O[C@H]2C[C@@](C)(OC)C[C@H](C)O2)[C@H](C)[C@@H](O[C@@H]2O[C@H](C)C[C@H](N(C)C)[C@H]2O)[C@@]2(C)CC(C)=C(O2)[C@H](C)[C@@H](O)[C@]1(C)O [Example 1, 8,9-Anhydro-4"-deoxyerythromycin A-6,9-hemiketal] | 3.89 | 363 | –

Now from value to compound, other results behind:

Row | EC50 [nM] | Structure (SMILES) | Relative Potency | Endpoint (pED50) could not be obtained, potency in words (footnote a of Table 2)
6 | 70.8 | CC[C@H]1OC(=O)[C@H](C)[C@@H](O[C@H]2C[C@@](C)(OC)C[C@H](C)O2)[C@H](C)[C@@H](O[C@@H]2O[C@H](C)C[C@H](NC)[C@H]2O)[C@@]2(C)C[C@@H](C)C(O2)[C@H](C)[C@@H](O)[C@]1(C)O [Example 14, 9-Deoxo-4',6-Dideoxy-3'-N-Desmethyl-6,9-Epoxyerythromycin A] | 20 | –
7 | 23.4 | C#CC[N+](C)(C)[C@H]1C[C@@H](C)O[C@@H](O[C@@H]2[C@@H](C)[C@H](O[C@H]3C[C@@](C)(OC)C[C@H](C)O3)[C@@H](C)C(=O)O[C@H](CC)[C@@](C)(O)[C@H](O)[C@@H](C)C3O[C@]2(C)C[C@@H]3C)[C@@H]1O [Example 12, 9-deoxo-4",6-dideoxy-8-epi-6,9-epoxy-3'-N -propargylerythromycin A bromide] | 60 | –
8 | 0.182 | CC[C@H]1OC(=O)[C@H](C)[C@@H](O[C@H]2C[C@@](C)(OC)C[C@H](C)O2)[C@H](C)[C@@H](O[C@@H]2O[C@H](C)C[C@H](NC)[C@H]2O)[C@@]2(C)CC(C)=C(O2)[C@H](C)[C@@H](O)[C@]1(C)O [Example 3, 8,9-anhydro-4"-deoxy-3'-N-desmethyl erythromycin A-6,9-hemiketal] | 7,762 | –
9 | 17.8 | CC[C@H]1OC(=O)[C@H](C)[C@@H](O[C@H]2C[C@@](C)(OC)C[C@H](C)O2)[C@H](C)[C@@H](O[C@@H]2O[C@H](C)C[C@H](NC)[C@H]2O)[C@@]2(C)C[C@H](C)C(O2)[C@H](C)[C@@H](O)[C@]1(C)O [Example 10, 9-deoxo-3'-N-desmethyl-4",6-dideoxy-8-epi-6,9-epoxyerythromycin A] | 79 | –
